The target in assay [1] is T1, iPLA2β (Cricetulus griseus, UniProt A0A3L7I2I8).
T1 construct: (His)6; made in house; host or cells: Sf9 insect cells (baculovirus)
T1 sequence (A0A3L7I2I8 1-752 isoform A0A3L7I2I8-2): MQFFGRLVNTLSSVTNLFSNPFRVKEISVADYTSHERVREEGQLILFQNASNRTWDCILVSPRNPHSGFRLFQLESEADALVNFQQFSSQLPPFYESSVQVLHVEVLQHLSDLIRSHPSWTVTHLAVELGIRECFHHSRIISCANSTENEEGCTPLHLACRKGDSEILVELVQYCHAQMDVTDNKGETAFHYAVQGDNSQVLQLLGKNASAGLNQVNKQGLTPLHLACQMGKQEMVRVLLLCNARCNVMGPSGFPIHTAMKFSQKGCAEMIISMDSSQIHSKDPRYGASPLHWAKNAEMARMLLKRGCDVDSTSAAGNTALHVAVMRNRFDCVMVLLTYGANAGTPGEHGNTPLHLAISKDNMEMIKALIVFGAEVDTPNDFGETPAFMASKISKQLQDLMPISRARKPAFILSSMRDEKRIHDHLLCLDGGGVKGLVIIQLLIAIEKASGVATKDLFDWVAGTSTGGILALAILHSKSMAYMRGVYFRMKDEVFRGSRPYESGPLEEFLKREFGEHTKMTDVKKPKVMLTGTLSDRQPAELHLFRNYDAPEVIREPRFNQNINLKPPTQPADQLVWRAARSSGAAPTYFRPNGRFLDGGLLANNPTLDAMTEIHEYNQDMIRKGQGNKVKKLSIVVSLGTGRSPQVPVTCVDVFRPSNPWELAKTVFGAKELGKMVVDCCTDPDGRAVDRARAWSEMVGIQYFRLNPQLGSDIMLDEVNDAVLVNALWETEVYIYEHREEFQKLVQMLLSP
Briefly: iPLA2β-catalyzed acyl-CoA hydrolysis (substrate rate and selectivity). The class given is biochemical.
Procedure: Reactions were terminated by vortexing with butanol and [1-^14C]-palmitic acid extracted into the butanol layer was resolved by TLC and quantified by liquid scintillation spectrometry as described in Experimental Procedures. B, iPLA2β catalyzed hydrolysis of palmitoyl-CoA guest in host POPC/DOPS vesicles. The indicated mol % of [^14C]-palmitoyl-CoA were incorporated into POPC/DOPS (90:10) vesicles (100 μM final vesicle lipid concentration). Each data point represents the average±S.E. for at least 4 separate determinations.
Released [1-^14C]-fatty acid was extracted into butanol by vortexing, resolved by TLC, and quantified by liquid scintillation spectrometry as described in Experimental Procedures. Each data point represents the average ±SE. from 8 separate determinations.
In tests using acyl-CoAs as guests in host phospholipid bilayers, radiolabeled acyl-CoAs were incorporated into POPC/DOPS (90:10 mol %) vesicles before addition to the reaction mix. […] Incorporation of acyl-CoA into the POPC/DOPS vesicles employed was determined as described previously (64). Reactions were terminated by extraction of the released radiolabeled fatty acids into 100 μl butanol, separation of fatty acids from unreacted substrate by thin layer chromatography, and quantitation by scintillation spectroscopy as previous described (65). […]

Assay [2] deals with T1, iPLA2β. Briefly: iPLA2β palmitoyl-CoA thioesterase (hydrolase) activity, palmitoyl-CoA guest in host vesicles. The class given is biochemical. Conditions: pre-incubated with purified iPLA2β(His)6; palmitoyl-CoA guest in POPC/DOPS host bilayers; read-out: IC50, iPLA2β palm-CoA hydrolase activity. On the procedure: The enzyme was then added to 100 mM Tris-HCl, pH 7.2 containing 1 mM EGTA and [1-^14C]-palmitoyl-CoA guest (5 mol %) in POPC (100 μM) host vesicles for 2 min at 37° C. Following extraction into butanol, liberated [1-^14C]-palmitic acid was separated from [1-^14C]-palmitoyl-CoA by TLC and quantified by liquid scintillation spectrometry as described in Experimental Procedures.
FIG. 9—Calcium-independent iPLA2β was pre-incubated in the presence of Ca^2+ (1 mM) or Ca^2+-CaM (3 μg) on ice before addition to 95 μM POPC containing either 5 mol % [1-^14C]-POPC or [1-^14C]-palmitoyl-CoA in 100 mM Tris-HCl, pH 7.2. After incubation at 37° C. for 3 min, reactions were terminated by vortexing in the presence of butanol and released radiolabeled fatty acids were resolved by TLC and quantitated by liquid scintillation spectrometry as described in Experimental Procedures.
Phospholipase A2 and Acyl-CoA Hydrolase Enzymatic Assays—Purified recombinant iPLA2β(His)6 (peptide disclosed as SEQ ID NO: 4) (0.1-1 μg) was incubated with radiolabeled phospholipid or acyl-CoA in 25 mM Tris-HCl, pH 7.2 containing 1 mM EGTA (200 μl final volume) for 1-2 mm at 37° C. […] Incorporation of acyl-CoA into the POPC/DOPS vesicles employed was determined as described previously (64). […]

The target of assay [3] is T1, iPLA2β. Put plainly: Covalent acylation (autoacylation) of iPLA2β with [14C]-long chain acyl-CoAs. Conditions: for effect of pretreatment on radiolabeling of iPLA2β with [1-14C]-oleoyl-CoA: 5 mM, 5 min at 30° C. pretreatment, FIG. 7. In kind it is biochemical. On the procedure:
FIG. 5—Equivalent amounts of the indicated [1-^14C]-acyl-CoA guests (5 mol %) were incorporated into host POPC (100 μM) vesicles and incubated for 1 hr at 37° C. with equal amounts of either wild-type (WT) iPLA2β(His)6 (peptide disclosed as SEQ ID NO: 4), S465A iPLA2β(His)6 (peptide disclosed as SEQ ID NO: 4), or BEL-pretreated WT iPLA2β(His)6 (peptide disclosed as SEQ ID NO: 4) enzyme as described in Experimental Procedures. Samples were resolved by SDS-PAGE (10% gel), fixed, and dried before visualization by autoradiography.
FIG. 6—Purified iPLA2β(His)6 (peptide disclosed as SEQ ID NO: 4) (2 μM) was incubated with the indicated concentrations of [1-^14C]-oleoyl-CoA present as guest in host POPC (100 μM) vesicles for 1 hr at 37° C. Samples were electrophoresed in parallel with standard amounts (0.5-10 nCi) of [^14C]-BSA of known activity (not shown). The fixed and dried gel was exposed to film and the resultant signals from the [^14C]-BSA were utilized to generate a standard curve utilizing ID software from a Kodak Imagestation to determine the incorporation of [1-^14C]-oleate into iPLA2β.
FIG. 7—Purified iPLA2β(His)6 (peptide disclosed as SEQ ID NO: 4) was incubated with [1-^14C]-oleoyl CoA (10 mol %) incorporated as guest in host POPC vesicles. N-ethylmaleimide and iodoacetamide samples were pretreated with 5 mM of either reagent for 5 min at 30° C. before addition of [1-^14C]-oleoyl-CoA. Samples were incubated with 1 N HCl, 1 N NaOH, or 2 N neutral hydroxylamine for 1 hr at 30° C. as indicated. All samples, except lane 1, were precipitated with CHCl3/MeOH and washed with 70% acetone before SDS-PAGE and autoradiography as described in Experimental Procedures.
FIG. 10—Purified iPLA2β(His)6 (peptide disclosed as SEQ ID NO: 4) was incubated with [1-^14C]-oleoyl CoA (10 mol %) incorporated as guest in host POPC vesicles in the presence of EGTA (5 mM), Ca^2+ (1 mM), CaM (3 μg), or Ca^2+-CaM for 1 h at 37° C. Samples were resolved by SDS-PAGE and the gel was soaked in Amplify fluorographic reagent, dried, and exposed to film as described in Experimental Procedures.
Covalent Modification of […] with [^14C]-long chain Acyl CoAs—Purified recombinant iPLA2β(His)6 (peptide disclosed as SEQ ID NO: 4) was incubated with POPC vesicles containing 10 mol % [1-^14C]-acyl-CoA for 1 h at 37° C. […] Chloroform/methanol precipitation of some samples was performed as described (66) utilizing 15 μg of bovine serum albumin as carrier. In tests to examine the nature of the covalent linkage between oleic acid and iPLA2β, acid (HCl), base (NaOH), and hydroxylamine were added to the indicated concentrations and the samples were incubated at 30° C. for 1 h. Bovine serum albumin (15 μg) and SDS-PAGE loading buffer were then added to each sample prior to dialysis against 50 mM Tris-HCl, pH 6.8 containing 10% glycerol and 1% SDS for 4 h. Samples were electrophoresed by SDS-PAGE, fixed (40% methanol containing 10% acetic acid), stained with Coomassie Blue R-250, incubated in Amplify fluorographic reagent, dried, and exposed to Kodak Biomax MR film for 2-5 days at −80° C.

Assay [4] deals with T1, iPLA2β. Put plainly: Cardiolipin and phospholipid hydrolysis catalyzed by iPLA2β and inhibition by BEL. The conditions noted are these: iPLA2b + BEL 10 μM, 20 min 37° C. In kind it is biochemical. The protocol: (§1) Purified calcium-independent phospholipase A2 (iPLA2β) and calcium-independent phospholipase A2γ were incubated with vesicles containing 10% cardiolipin (tetra 18:1) for 20 min at 37° C.

For assay [5], the target named is T2, iPLA2γ (Homo sapiens, UniProt Q9NP80).
T2 sequence (Q9NP80 1-782): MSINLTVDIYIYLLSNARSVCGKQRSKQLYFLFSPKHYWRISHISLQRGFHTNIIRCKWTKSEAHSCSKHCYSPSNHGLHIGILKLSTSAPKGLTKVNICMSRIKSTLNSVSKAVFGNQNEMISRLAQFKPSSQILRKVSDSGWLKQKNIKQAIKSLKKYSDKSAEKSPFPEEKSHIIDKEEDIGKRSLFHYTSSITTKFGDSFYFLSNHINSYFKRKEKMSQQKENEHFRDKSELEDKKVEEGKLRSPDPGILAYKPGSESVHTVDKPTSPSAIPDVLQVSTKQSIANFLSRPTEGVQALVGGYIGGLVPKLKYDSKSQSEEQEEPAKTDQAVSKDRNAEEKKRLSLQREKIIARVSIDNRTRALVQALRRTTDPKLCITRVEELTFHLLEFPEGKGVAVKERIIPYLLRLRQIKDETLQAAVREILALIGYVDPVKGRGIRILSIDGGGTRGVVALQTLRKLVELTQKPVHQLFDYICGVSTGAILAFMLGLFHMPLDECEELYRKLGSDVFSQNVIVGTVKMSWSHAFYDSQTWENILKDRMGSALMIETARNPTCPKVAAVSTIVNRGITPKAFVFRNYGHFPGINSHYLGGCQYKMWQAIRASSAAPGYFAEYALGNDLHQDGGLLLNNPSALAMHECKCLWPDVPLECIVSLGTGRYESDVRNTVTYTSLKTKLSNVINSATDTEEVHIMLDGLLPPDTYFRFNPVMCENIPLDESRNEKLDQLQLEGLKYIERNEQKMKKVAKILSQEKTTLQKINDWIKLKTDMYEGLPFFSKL
Briefly: Cardiolipin and phospholipid hydrolysis catalyzed by iPLA2γ and inhibition by BEL. The class given is biochemical. Conditions: iPLA2g + BEL 10 μM, 20 min 37° C. The protocol:
as §1

The target of assay [6] is T2, iPLA2γ. Conditions: racemic BEL, previous work; read-out: IC50, iPLA2γ phospholipase A2 activity; cited from earlier work.
Where [7] appears, read: PAPC vesicles with 10 mol % tetra-18:1 CL.

As to `CCCCCCCCCCCCCCCC(=O)SCCNC(=O)CCNC(=O)[C@H](O)C(C)(C)COP(=O)(O)OP(=O)(O)OC[C@H]1O[C@@H](n2cnc3c(N)ncnc32)[C@H](O)[C@@H]1OP(=O)(O)O` [palmitoyl-CoA], the “maximal rate of palmitoyl-CoA thioesterase activity catalyzed by iPLA2β” value on iPLA2β [1] (at 2.5 μM palmitoyl-CoA, FIG. 1A) was “≈ 250 nmol palmitic acid×min^−1×mg^−1 protein”.
Consider `O=C1O/C(=C/Br)CC[C@H]1c1cccc2ccccc12` [(S)-BEL], for which the IC50 at iPLA2β [2] is roughly 0.1 µM.
With `O=C1O/C(=C/Br)CC[C@@H]1c1cccc2ccccc12` [(R)-BEL], the 50% inhibitory concentration (IC50) at iPLA2β [2] came to 0.8 µM.
Take `CCN1C(=O)C=CC1=O` [N-ethylmaleimide]: the “effect of pretreatment on radiolabeling of iPLA2β with [1-14C]-oleoyl-CoA” value at iPLA2β [3] was “decreased radiolabeling”.
Turning to `CC(C)(COP(=O)(O)OP(=O)(O)OC[C@H]1O[C@@H](n2cnc3c(N)ncnc32)[C@H](O)[C@@H]1OP(=O)(O)O)[C@@H](O)C(=O)NCCC(=O)NCCS` [CoASH], the “inhibition of iPLA2β by high concentrations of CoASH” value on iPLA2β [1] is recorded as “not inhibited”.
With `NC(=O)CI` [iodoacetamide], the “effect of pretreatment on radiolabeling of iPLA2β with [1-14C]-oleoyl-CoA” value at iPLA2β [3] was “decreased radiolabeling”.
In the case of `O=C1O/C(=C/Br)CCC1c1cccc2ccccc12` (racemic) [BEL, (E)-6-(bromomethylene)-3-(1-naphthalenyl)-2H-tetrahydropyran-2-one], at iPLA2β [3] (BEL-pretreated iPLA2β, FIG. 5), the “effect of BEL pretreatment on iPLA2β acylation with palmitoyl-CoA and stearoyl-CoA” value was “marked increases in acylation”. On iPLA2β [4], the “16:0 FA” value was determined as 0.96 nmol/reaction, the “18:1 FA” value is 0.61 nmol/reaction, the “20:4 FA” value is given as 0.50 nmol/reaction and the “Di-18:1 LysoCL” value is given as 0.15 nmol/reaction. For the same molecule, the “Tri-18:1 LysoCL” value at iPLA2β [4] was 0.10 nmol/reaction. Moreover, the “Tetra-18:1 CL” value at iPLA2β [4] (setting [7]) was determined as 1.95 nmol/reaction. On iPLA2γ [5], the “16:0 FA” value is given as 3.07 nmol/reaction, the “18:1 FA” value is listed as 0.54 nmol/reaction, the “20:4 FA” value was found to be 0.54 nmol/reaction and the “Di-18:1 LysoCL” value amounted to 0.12 nmol/reaction. The “Tri-18:1 LysoCL” value at iPLA2γ [5] is listed as 0.14 nmol/reaction. The “Tetra-18:1 CL” value at iPLA2γ [5] (setting [7]) is 2.18 nmol/reaction. On iPLA2γ [6], the IC50 is roughly 3 µM.
`CCCCC/C=C\C/C=C\C/C=C\C/C=C\CCC[14C](=O)SCCNC(=O)CCNC(=O)[C@H](O)C(C)(C)COP(=O)(O)OP(=O)(O)OC[C@H]1O[C@@H](n2cnc3c(N)ncnc32)[C@H](O)[C@@H]1OP(=O)(O)O` [[1-^14C]-arachidonoyl-CoA]: on iPLA2β [3] (wild-type iPLA2β, FIG. 5), the “signal intensity of iPLA2β acylation, fold less than with [1-14C]-oleoyl-CoA” value is listed as “≈ 25 fold”.

(Values after US8148097B2, “Screening method for identification of compounds with calcium-independent phospholipase A2β (iPLA2β) modulating activity” (Washington University, priority 2005, dated 2012).)
